Where two headings read alike, the source gives them in different places.
How the values were obtained:
Type in all cases: in vivo
Setaria faberi (SETFA) [1] = assay: Biological Example 3 glasshouse assay using various adjuvant systems, post-emergence foliar spray; details: 8 g/ha
Protocol: Post-emergence foliar spray application, 200 L/ha, usually one or two replicates for the weeds (depending on application rate), and two replicates for soybean.
Standard warm conditions (tropical), in glasshouse. Specifically, the glasshouse bay conditions are 24° C./18° C. day/night; 16/8 hours light/dark; 65% humidity.
The herbicidal application takes place at the following growth stages for plants which include inter alia one or more of the following plants (usually the herbicidal application takes place on at least the following plants: DIGSA, ELEIN, SETFA, ZEAMX, GLXMA Nikko, and GLXMA TMG133, and often also either BRADC or BRAPP):
Setaria faberi (SETFA)—growth stage 12 or 13
Each test compound is applied with one of the following adjuvant systems (all percentages are final concentrations in the aqueous spray mixture):
Adjuvant system 1: 0.5% v/v Adigor™ *, 1.0% v/v AMS (ammonium sulphate) and 12.5% v/v IPA (isopropyl alcohol).
Adjuvant system 1A: 0.5% v/v Adigor™ * and 12.5% v/v IPA (isopropyl alcohol).
CAS Registry no. […] A visual assessment of the % herbicidal damage is made 7 and 14 Days After herbicide Application (DAA) (or, in a minority of cases, 7 and 15 DAA), and the results are recorded as % visual herbicidal damage where 0%=no damage to plants and 100%=plant totally killed. *** Adjuvant system=either Adigor™ or Hexamoll DINCH™ or tris-(2-ethylhexyl) phosphate each at 0.5% v/v, and 12.5% v/v IPA (isopropyl alcohol), and 1.0% v/v AMS (ammonium sulphate); or 0.5% v/v Adigor™ and 12.5% v/v IPA (isopropyl alcohol); all percentages are final concentrations in the aqueous spray mixture. […]
The percentages of herbicidal damage/plant control, at 14 Days After herbicide Application (DAA) (or, in a minority of cases, at 15 DAA), for the Compounds tested and for some of the plants tested, were in the following percentage ranges. […] Phytotoxicity on Glycine max (GLXMA, Soybean) Cultivar “TMG133” Glycine max (GLXMA, soybean) cultivar “TMG133” is Roundup Ready™ glyphosate-tolerant soybean cultivar TMG133, and is typically available from Monsanto in Brazil.

[2] = tested on: Zea mays (ZEAMX, corn, maize, e.g. volunteer corn); assay: Biological Example 1A glasshouse assay, post-emergence application; details: Zea mays, post-emergence, 312 h, read-out: Percentage phytotoxicity ZEAMX
Protocol: (§1) Seeds of a variety of test plant species were sown in standard soil ** in pots. After cultivation for one day (pre-emergence) or after 8 days cultivation (post-emergence) under controlled conditions in a glasshouse (at 24/16° C., day/night; 14 hours light; 65% humidity), the plants were sprayed with an aqueous spray solution derived from the formulation of the technical active ingredient (the test herbicide) in acetone/water (50:50) solution containing 0.5% Tween 20 (polyoxyethylene sorbitan monolaurate, CAS Reg. No. 9005-64-5). The test plants were then grown on under controlled conditions in a glasshouse (at 24/16° C., day/night; 14 hours light; 65% humidity) and watered twice daily. 13 Days after application of the test herbicide, for pre- and post-emergence, the test was evaluated visually for percentage phytotoxicity to each plant (where 100%=total damage to plant; 0%=no damage to plant). Generally, each test herbicide is only tested on 1 plant per plant species for each application rate tested and for each application timing. ** The “standard soil” in Biological Example 1 is usually a “sand” or “sandy loam” type of soil.
(§2) Dicotyledonous weeds: ABUTH=Abutilon theophrasti; AMARE=Amaranthus retroflexus. Grassy monocotyledonous weeds: SETFA=Setaria faberi; ALOMY=Alopecurus myosuroides; ECHCG=Echinochloa crus-galli; ZEAMX=Zea mays (corn, maize, e.g. volunteer corn). For Compound A16, the grassy monocotyledonous weed LOLPE (Lolium perenne) was used in the test insterad of ALOMY.

[3] = tested on: Echinochloa crus-galli (ECHCG); assay: as above; details: 312 h, read-out: Percentage phytotoxicity ECHCG
Protocol: as §1, §2

[4] = tested on: Alopecurus myosuroides (ALOMY); assay: as above; details: 13 days after application
Protocol: as §1, §2

[5] = tested on: Amaranthus retroflexus (AMARE); assay: as above; details: 312 h, read-out: Percentage phytotoxicity AMARE
Protocol: as §1, §2

[6] = tested on: Abutilon theophrasti (ABUTH); assay: as above; details: 312 h, read-out: Percentage phytotoxicity ABUTH
Protocol: as §1, §2

Setaria faberi (SETFA) [7] = assay: as above; details: Setaria faberi, post-emergence, 312 h, read-out: Percentage phytotoxicity SETFA
Protocol: as §1, §2

[8] = 30 g/ha, 13 days after application
[9] = 250 g/ha, 13 days after application

**Q.** Which “percentage control of (phytotoxicity on) Setaria faberi (SETFA)” value (Setaria faberi (SETFA) [1]; 14 DAA, adjuvant 0.5% v/v Adigor + 12.5% v/v IPA) does the source give for `C#CCC1CC(=O)C(c2c(F)cc(C#CC)cc2OC)C1=O` (centres unmarked) [Compound A8, 2-(2-fluoro-6-methoxy-4-prop-1-ynyl-phenyl)-4-prop-2-ynyl-cyclopentane-1,3-dione] here?
**A.** 75%

**Q.** What about the pest or weed control at 30 g/ha [2] of the same compound?
**A.** 100%

**Q.** What about the pest or weed control at 250 g/ha [2] of the same compound?
**A.** 100%

**Q.** What about the pest or weed control at 30 g/ha [3] of the same compound?
**A.** 100%

**Q.** And the pest or weed control at 250 g/ha [3]?
**A.** 100%

**Q.** And the “Percentage phytotoxicity ALOMY” value ([4]; 30 g/ha)?
**A.** 70%

**Q.** And the “Percentage phytotoxicity ALOMY” value ([4]; 250 g/ha)?
**A.** 90%

**Q.** And the pest or weed control at 30 g/ha [5]?
**A.** 0%

**Q.** And the pest or weed control at 250 g/ha [5]?
**A.** 0%

**Q.** And the pest or weed control at 30 g/ha [6]?
**A.** 0%

**Q.** And the pest or weed control at 250 g/ha [6]?
**A.** 70%

**Q.** And the pest or weed control at 30 g/ha (Setaria faberi (SETFA) [7])?
**A.** 80%

**Q.** And the pest or weed control at 250 g/ha (Setaria faberi (SETFA) [7])?
**A.** 100%

**Q.** Which results are given for `CC#Cc1cc(F)c(C2C(=O)CC(CCSC)CC2=O)c(OC)c1` (centres unmarked) [Compound A11]?
**A.** percentage control of Setaria faberi (SETFA) (Setaria faberi (SETFA) [1]; 14 DAA (A11: 14 or 15 DAA), adjuvant 0.5% v/v Adigor + 1.0% v/v AMS + 12.5% v/v IPA): 0%; pest or weed control at 30 g/ha [2, 8]: 20%; pest or weed control at 250 g/ha [2, 9]: 20%; pest or weed control at 30 g/ha [3, 8]: 0%; pest or weed control at 250 g/ha [3, 9]: 10%; Percentage phytotoxicity ALOMY ([4]; 30 g/ha): 0%; Percentage phytotoxicity ALOMY ([4]; 250 g/ha): 10%; pest or weed control at 30 g/ha [5, 8]: 30%; pest or weed control at 250 g/ha [5, 9]: 50%; pest or weed control at 30 g/ha [6, 8]: 0%; pest or weed control at 250 g/ha [6, 9]: 10%; pest or weed control at 30 g/ha (Setaria faberi (SETFA) [7]; [8]): 30%; pest or weed control at 250 g/ha (Setaria faberi (SETFA) [7]; [9]): 60%
